This passage reports IC50 results from patent publication US20250144094A1 (Erasca, Inc., priority 2021, published 2025).

For this experiment, the target named is Recombinant human ULK1 (1-649) (Homo sapiens (Human), UniProt O75385). As to the kind of experiment: ULK1 ADP Glo kinase activity assay, new method (ULKtide peptide substrate). The note with it: 25° C., 40 minutes, read-out: ULK1 biochemical IC50. The protocol:
Recombinant human ULK1 (1-649) protein expressed in Sf9 insect cells was obtained from SignalChem (Vancouver, BC), catalog #U01-11G. Active kinase was purified via N-terminal GST tag to >85% purity.
ADP GLO Kinase Assay Reagents were obtained from Promega Corp (Madison, WI), catalog #V9104.
Synthetic peptide substrate (ULKtide) with the amino acid sequence YANWLAASIYLDGKKK was obtained from ThermoFisher Scientific USA.
ULK1 inhibitor potency was determined using the luminescent ADP Glo Kinase Assay (Promega), a universal ADP detection system that measures kinase activity by quantifying the amount of ADP produced during a kinase reaction. ULK1 kinase reactions are performed in a standard 96-well microplate (20 μL reaction volume) at 25° C. for 40 minutes in the presence or absence of the test compound (12-point dilution series starting at 10 μM). Addition of peptide substrate and ATP initiates the kinase reaction.
The standard ADP Glo assay is performed in two steps. In step one, following the kinase reaction, an equal volume of ADP-Glo™ Reagent (20 μL) is added to terminate the kinase reaction and deplete the remaining ATP. In the second step, the Kinase Detection Reagent (10 μL) is added to simultaneously convert ADP to ATP and allow the newly synthesized ATP to be measured using a luciferase/luciferin reaction. Step two of the ADP Glo assay is performed in a white 384-well plate (20 μL final volume). Thirty minutes after the addition of the Detection reagent, light generated from the luciferase reaction is measured (1 second exposure) using a microplate compatible luminometer (CLARIOstar, BMG Labtech).
Inhibition of ULK1 kinase activity is determined for each test compound by comparison to DMSO only control wells. Inhibitor IC50 was calculated by plotting the change in luminescence after 30 minutes (response) versus inhibitor concentration (in log molar) then applying the four-parameter variable slope curve fit (GraphPad Prism). Inhibition of ULK1 in biochemical assay is found in Table 4.

Each structure is given as a SMILES string.

Sequence of Recombinant human ULK1 (1-649) (O75385 1-649): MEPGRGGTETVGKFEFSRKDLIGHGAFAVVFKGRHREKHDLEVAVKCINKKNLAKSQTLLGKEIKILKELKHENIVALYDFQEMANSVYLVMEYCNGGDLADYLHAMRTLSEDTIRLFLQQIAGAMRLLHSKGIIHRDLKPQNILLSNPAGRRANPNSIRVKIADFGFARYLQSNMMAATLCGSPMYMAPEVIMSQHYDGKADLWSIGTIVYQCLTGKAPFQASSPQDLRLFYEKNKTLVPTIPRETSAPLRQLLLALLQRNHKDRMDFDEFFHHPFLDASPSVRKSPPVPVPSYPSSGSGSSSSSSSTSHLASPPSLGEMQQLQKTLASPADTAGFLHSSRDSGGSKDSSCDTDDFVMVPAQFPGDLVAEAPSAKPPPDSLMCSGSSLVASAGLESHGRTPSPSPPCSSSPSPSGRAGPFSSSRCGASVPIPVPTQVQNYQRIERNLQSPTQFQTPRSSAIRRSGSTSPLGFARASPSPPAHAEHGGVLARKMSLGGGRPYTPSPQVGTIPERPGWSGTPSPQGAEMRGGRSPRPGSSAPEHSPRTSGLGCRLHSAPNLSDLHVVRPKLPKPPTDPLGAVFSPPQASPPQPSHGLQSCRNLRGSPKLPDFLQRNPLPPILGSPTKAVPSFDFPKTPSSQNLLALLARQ

Take `NC(=O)CN1CCc2cc(Nc3ncc(C(F)(F)F)c(-c4cc5c(s4)C(=O)N(C4COC4)CCS5(=O)=O)n3)c(C3CC3)cc2C1` [Example 284, 2-(7-cyclopropyl-6-((4-(4-(oxetan-3-yl)-1,1-dioxido-5-oxo-2,3,4,5-tetrahydrothieno[2,3-f][1,4]thiazepin-7-yl)-5-(trifluoromethyl)pyrimidin-2-yl)amino)-3,4-dihydroisoquinolin-2(1H)-yl)acetamide]: the IC50 is at most 5 nM. Under `CCN1CCN(c2ccc(Nc3ncc(C(F)(F)F)c(-c4cc5c(s4)C(=O)N(C4CC4)CCS5(=O)=O)n3)c(C3CC3)c2)CC1` [Example 255, 4-cyclopropyl-7-(2-((2-cyclopropyl-4-(4-ethylpiperazin-1-yl)phenyl)amino)-5-(trifluoromethyl)pyrimidin-4-yl)-3,4-dihydrothieno[2,3-f][1,4]thiazepin-5(2H)-one 1,1-dioxide] stands at most 5 nM; under `CCN1CCc2cc(Nc3ncc(C(F)(F)F)c(-c4cc5c(s4)C(=O)N(C)CCS5(=O)=O)n3)c(Cl)cc2C1` [Example 162, 7-(2-((7-chloro-2-ethyl-1,2,3,4-tetrahydroisoquinolin-6-yl)amino)-5-(trifluoromethyl)pyrimidin-4-yl)-4-methyl-3,4-dihydrothieno[2,3-f][1,4]thiazepin-5(2H)-one 1,1-dioxide], at most 5 nM. Under `Cc1ccc(C2CN(C)C2)cc1Nc1ncc(C(F)(F)F)c(-c2cc(S(C)(=O)=O)cs2)n1` [Example 137, N-(2-Methyl-5-(1-methylazetidin-3-yl)phenyl)-4-(4-(methylsulfonyl)thiophen-2-yl)-5-(trifluoromethyl)pyrimidin-2-amine] stands above 100 nM; under `CN1CCc2cc(Nc3ncc(C(F)(F)F)c(-c4cc5c(s4)C(=O)N(C)CCS5(=O)=O)n3)c(F)cc2C1` [Example 140, 7-(2-((7-fluoro-2-methyl-1,2,3,4-tetrahydroisoquinolin-6-yl)amino)-5-(trifluoromethyl)pyrimidin-4-yl)-4-methyl-3,4-dihydrothieno[2,3-f][1,4]thiazepin-5(2H)-one 1,1-dioxide], at most 5 nM. For the compound `CSc1cc2c(cc1Nc1ncc(C(F)(F)F)c(-c3cc4c(s3)C(=O)N(C)CCS4(=O)=O)n1)CCNC2` [Example 161, 4-methyl-7-(2-((7-(methylthio)-1,2,3,4-tetrahydroisoquinolin-6-yl)amino)-5-(trifluoromethyl)pyrimidin-4-yl)-3,4-dihydrothieno[2,3-f][1,4]thiazepin-5(2H)-one 1,1-dioxide], the 50% inhibitory concentration (IC50) was at most 5 nM. As to `CN1CCN(c2ccc(Nc3ncc(C(F)(F)F)c(-c4cc5c(s4)C(=O)N(C4COC4)CCS5(=O)=O)n3)c(C3CC3)c2)C[C@H]1C(N)=O` [Example 372, (S)-4-(3-Cyclopropyl-4-((4-(4-(oxetan-3-yl)-1,1-dioxido-5-oxo-2,3,4,5-tetrahydrothieno[2,3-f][1,4]thiazepin-7-yl)-5-(trifluoromethyl)pyrimidin-2-yl)amino)phenyl)-1-methylpiperazine-2-carboxamide], the IC50 was at most 5 nM. Regarding `CCc1cc2c(cc1Nc1ncc(C(F)(F)F)c(-c3cc4c(s3)C(=O)N(C)CCS4(=O)=O)n1)CCN(CC1CC1)C2` [Example 223, 7-(2-((2-(cyclopropylmethyl)-7-ethyl-1,2,3,4-tetrahydroisoquinolin-6-yl)amino)-5-(trifluoromethyl)pyrimidin-4-yl)-4-methyl-3,4-dihydrothieno[2,3-f][1,4]thiazepin-5(2H)-one 1,1-dioxide], the IC50 was at most 5 nM.

With `O=C1c2sc(-c3nc(Nc4cc5c(cc4C4CC4)CN(C4CC4)CC5)ncc3C(F)(F)F)cc2S(=O)(=O)CCN1C1COC1` [Example 301, 7-(2-((2,7-dicyclopropyl-1,2,3,4-tetrahydroisoquinolin-6-yl)amino)-5-(trifluoromethyl)pyrimidin-4-yl)-4-(oxetan-3-yl)-3,4-dihydrothieno[2,3-f][1,4]thiazepin-5(2H)-one 1,1-dioxide], the IC50 was at most 5 nM.

As for `CCc1cc(N2C[C@@H]3C[C@H]2CN3)ccc1Nc1ncc(C(F)(F)F)c(-c2cc3c(s2)C(=O)N(C2COC2)CCS3(=O)=O)n1` [Example 335, 7-(2-((4-((1S,4S)-2,5-diazabicyclo[2.2.1]heptan-2-yl)-2-ethylphenyl)amino)-5-(trifluoromethyl)pyrimidin-4-yl)-4-(oxetan-3-yl)-3,4-dihydrothieno[2,3-f][1,4]thiazepin-5(2H)-one 1,1-dioxide], the IC50 is at most 5 nM. On to `CN1C[C@@H]2C[C@H]1CN2c1ccc(Nc2ncc(C(F)(F)F)c(-c3cc4c(s3)C(=O)N(C3CC3)CCS4(=O)=O)n2)c(C2CC2)c1` [Example 306, 4-Cyclopropyl-7-(2-((2-cyclopropyl-4-((1S,4S)-5-methyl-2,5-diazabicyclo[2.2.1]heptan-2-yl)phenyl)amino)-5-(trifluoromethyl)pyrimidin-4-yl)-3,4-dihydrothieno[2,3-f][1,4]thiazepin-5(2H)-one 1,1-dioxide], for which the IC50 was at most 5 nM.

Consider `CCc1cc(C2CCN(CC(F)(F)F)CC2)ccc1Nc1ncc(C(F)(F)F)c(-c2cc3c(s2)C(=O)N(C2COC2)CCS3(=O)=O)n1` [Example 298, 7-(2-((2-Ethyl-4-(1-(2,2,2-trifluoroethyl)piperidin-4-yl)phenyl)amino)-5-(trifluoromethyl)pyrimidin-4-yl)-4-(oxetan-3-yl)-3,4-dihydrothieno[2,3-f][1,4]thiazepin-5(2H)-one 1,1-dioxide], for which the IC50 lay within 10 to 50 nM. Next, `CC(C)c1cc2c(cc1Nc1ncc(C(F)(F)F)c(-c3cc4c(s3)C(=O)N(C3CC3)CCS4(=O)=O)n1)CCN(CC1COC1)C2` [Example 269, 4-cyclopropyl-7-(2-((7-isopropyl-2-(oxetan-3-ylmethyl)-1,2,3,4-tetrahydroisoquinolin-6-yl)amino)-5-(trifluoromethyl)pyrimidin-4-yl)-3,4-dihydrothieno[2,3-f][1,4]thiazepin-5(2H)-one 1,1-dioxide]: at most 5 nM. Consider `CCc1cc2c(cc1Nc1ncc(C(F)(F)F)c(-c3cc4c(s3)C(=O)NCCS4(=O)=O)n1)CCNC2` [Example 138, 7-(2-((7-ethyl-1,2,3,4-tetrahydroisoquinolin-6-yl)amino)-5-(trifluoromethyl)pyrimidin-4-yl)-3,4-dihydrothieno[2,3-f][1,4]thiazepin-5(2H)-one 1,1-dioxide], for which the IC50 was at most 5 nM.

Regarding `CCc1cc(N2C[C@H]3CC[C@@H](C2)N3)ccc1Nc1ncc(C(F)(F)F)c(-c2cc3c(s2)C(=O)N(C2CC2)CCS3(=O)=O)n1` [Example 324, 7-(2-((4-((1R,5S)-3,8-diazabicyclo[3.2.1]octan-3-yl)-2-ethylphenyl)amino)-5-(trifluoromethyl)pyrimidin-4-yl)-4-cyclopropyl-3,4-dihydrothieno[2,3-f][1,4]thiazepin-5(2H)-one 1,1-dioxide], the IC50 is at most 5 nM. Next, `C[C@@H]1CN(c2ccc(Nc3ncc(C(F)(F)F)c(-c4cc5c(s4)C(=O)N(C4COC4)CCS5(=O)=O)n3)c(C3CC3)c2)C[C@H](C)N1C` [Example 357, 7-(2-((2-cyclopropyl-4-((3S,5R)-3,4,5-trimethylpiperazin-1-yl)phenyl)amino)-5-(trifluoromethyl)pyrimidin-4-yl)-4-(oxetan-3-yl)-3,4-dihydrothieno[2,3-f][1,4]thiazepin-5(2H)-one 1,1-dioxide]: at most 5 nM; `Cc1nn(C2CCN(C)CC2)cc1Nc1ncc(C(F)(F)F)c(-c2cc3c(s2)C(=O)N(C)CCS3(=O)=O)n1` [Example 183, 4-methyl-7-(2-((3-methyl-1-(1-methylpiperidin-4-yl)-1H-pyrazol-4-yl)amino)-5-(trifluoromethyl)pyrimidin-4-yl)-3,4-dihydrothieno[2,3-f][1,4]thiazepin-5(2H)-one 1,1-dioxide]: above 100 nM; `CCc1cc(N2CCN[C@H](C)C2)ccc1Nc1ncc(C(F)(F)F)c(-c2cc3c(s2)C(=O)N(C2COC2)CCS3(=O)=O)n1` [Example 406, (R)-7-(2-((2-ethyl-4-(3-methylpiperazin-1-yl)phenyl)amino)-5-(trifluoromethyl)pyrimidin-4-yl)-4-(oxetan-3-yl)-3,4-dihydrothieno[2,3-f][1,4]thiazepin-5(2H)-one 1,1-dioxide]: at most 5 nM. Next, `CN1C[C@@H]2C[C@H]1CN2c1ccc(Nc2ncc(C(F)(F)F)c(-c3cc4c(s3)C(=O)N(C3COC3)CCS4(=O)=O)n2)c(C2CC2)c1` [Example 317, 7-(2-((2-cyclopropyl-4-((1S,4S)-5-methyl-2,5-diazabicyclo[2.2.1]heptan-2-yl)phenyl)amino)-5-(trifluoromethyl)pyrimidin-4-yl)-4-(oxetan-3-yl)-3,4-dihydrothieno[2,3-f][1,4]thiazepin-5(2H)-one 1,1-dioxide]: at most 5 nM.
